Measured values: ChEMBL document CHEMBL1123898, “Antitumor imidazotetrazines. 14. Synthesis and antitumor activity of 6- and 8-substituted imidazo[5,1-d]-1,2,3,5-tetrazinones and 8-substituted pyrazolo[5,1-d]-1,2,3,5-tetrazinones” (1987)

Columns and labels:
[1] = system: L1210; test: Antitumor activity was assessed against L1210 tumors in B6D2F1 mouse by inoculation of 10e5 tumor cells through intravenous route and mean death of animals (treated/control) was reported at 100 mg/kg peroral dose; assay type: functional; details: route oral
[2] = system: L1210; test: Antitumor activity was assessed against L1210 tumors in B6D2F1 mouse by inoculation of 10e5 tumor cells through intravenous route and mean death of animals (treated/control) was reported at 200 mg/kg peroral dose; assay type: functional; details: route oral
[3] = system: L1210; test: Antitumor activity was assessed against L1210 tumors in B6D2F1 mouse by inoculation of 10e5 tumor cells through intravenous route and mean death of animals (treated/control) was reported at 50 mg/kg peroral dose; assay type: functional; details: route oral
[4] = system: L1210; test: Antitumor activity was assessed against L1210 tumors in B6D2F1 mouse by inoculation of 10e5 tumor cells through iv route and number of Survivors to duration was reported at 40 mg/kg po dose; 7/7; assay type: functional
[5] = system: L1210; test: Antitumor activity was assessed against L1210 tumors in B6D2F1 mouse by inoculation of 10e5 tumor cells through iv route and mean death of animals (treated/control) was reported at 20 mg/kg po dose; assay type: functional
[6] = system: L1210; test: Antitumor activity was assessed against L1210 tumors in B6D2F1 mouse by inoculation of 10e5 tumor cells through iv route and mean death of animals (treated/control) was reported at 40 mg/kg po dose; assay type: functional
[7] = system: L1210; test: Antitumor activity was assessed against L1210 tumors in B6D2F1 mouse by inoculation of 10e5 tumor cells through iv route and mean death of animals (treated/control) was reported at 10 mg/kg po dose; assay type: functional
[8] = Antitumor activity was assessed against TLX5 tumors in CBA/CA mouse by inoculation of 2 x 10e5 tumor cells through sc route and mean death of animals (treated/control) was reported at 20 mg/kg dose; assay type: functional; details: route subcutaneous
[9] = Antitumor activity was assessed against TLX5 tumors in CBA/CA mouse by inoculation of 2 x 10e5 tumor cells through sc route and mean death of animals (treated/control) was reported at 40 mg/kg dose; assay type: functional; details: route subcutaneous
[10] = Antitumor activity was assessed against TLX5 tumors in CBA/CA mouse by inoculation of 2 x 10e5 tumor cells through sc route and mean death of animals (treated/control) was reported at 80 mg/kg dose; assay type: functional; details: route subcutaneous
[11] = Antitumor activity was assessed against TLX5 tumors in CBA/CA mouse by inoculation of 2 x 10e5 tumor cells through sc route and number of survivors was reported at 20 mg/kg ip dose; 3/5; assay type: functional; details: route subcutaneous
[12] = Antitumor activity was assessed against TLX5 tumors in CBA/CA mouse by inoculation of 2 x 10e5 tumor cells through sc route and number of survivors was reported at 40 mg/kg ip dose; 3/5; assay type: functional; details: route subcutaneous
[13] = Antitumor activity was assessed against TLX5 tumors in CBA/CA mouse by inoculation of 2 x 10e5 tumor cells through sc route and mean death of animals (treated/control) was reported at 160 mg/kg dose; assay type: functional; details: route subcutaneous
[14] = Antitumor activity was assessed against TLX5 tumors in CBA/CA mouse by inoculation of 2 x 10e5 tumor cells through sc route and mean death of animals (treated/control) was reported at 320 mg/kg dose; assay type: functional; details: route subcutaneous
[15] = system: L1210; test: Antitumor activity was assessed against L1210 tumors in B6D2F1 mouse by inoculation of 10e5 tumor cells through iv route and mean death of animals (treated/control) was reported at 50 mg/kg po dose; assay type: functional
[16] = system: L1210; test: Antitumor activity was assessed against L1210 tumors in B6D2F1 mouse by inoculation of 10e5 tumor cells through iv route and mean death of animals (treated/control) was reported at 100 mg/kg po dose; assay type: functional
[17] = system: L1210; test: Antitumor activity was assessed against L1210 tumors in B6D2F1 mouse by inoculation of 10e5 tumor cells through iv route and mean death of animals (treated/control) was reported at 200 mg/kg po dose; assay type: functional
[18] = system: L1210; test: Antitumor activity was assessed against L1210 tumors in B6D2F1 mouse by inoculation of 10e5 tumor cells through iv route and mean death of animals (treated/control) was reported at 80 mg/kg po dose; assay type: functional
[19] = system: L1210; test: Antitumor activity was assessed against L1210 tumors in B6D2F1 mouse by inoculation of 10e5 tumor cells through iv route and mean death of animals (treated/control) was reported at 160 mg/kg po dose; assay type: functional
[20] = Antitumor activity was assessed against TLX5 tumors in CBA/CA mouse by inoculation of 2 x 10e5 tumor cells through sc route and number of survivors to duration was reported at 40 mg/kg ip dose; 2/5; assay type: functional; details: route subcutaneous
[21] = Antitumor activity was assessed against TLX5 tumors in CBA/CA mouse by inoculation of 2 x 10e5 tumor cells through sc route and number of survivors to duration was reported at 80 mg/kg ip dose; 5/5; assay type: functional; details: route subcutaneous
[22] = Antitumor activity was assessed against TLX5 tumors in CBA/CA mouse by inoculation of 2 x 10e5 tumor cells through subcutaneous route and mean death of animals (treated/control) was reported at 10 mg/kg ip dose; assay type: functional
[23] = Antitumor activity was assessed against TLX5 tumors in CBA/CA mouse by inoculation of 2 x 10e5 tumor cells through subcutaneous route and mean death of animals (treated/control) was reported at 160 mg/kg dose; assay type: functional
[24] = Antitumor activity was assessed against TLX5 tumors in CBA/CA mouse by inoculation of 2 x 10e5 tumor cells through subcutaneous route and mean death of animals (treated/control) was reported at 20 mg/kg ip dose; assay type: functional
[25] = Antitumor activity was assessed against TLX5 tumors in CBA/CA mouse by inoculation of 2 x 10e5 tumor cells through subcutaneous route and mean death of animals (treated/control) was reported at 40 mg/kg dose; assay type: functional
[26] = Antitumor activity was assessed against TLX5 tumors in CBA/CA mouse by inoculation of 2 x 10e5 tumor cells through subcutaneous route and mean death of animals (treated/control) was reported at 80 mg/kg dose; assay type: functional
[27] = system: L1210; test: Antitumor activity was assessed against L1210 tumors in B6D2F1 mouse by inoculation of 10e5 tumor cells through intravenous route and number of Survivors to duration was reported at 10 mg/kg peroral dose; 2/10; assay type: functional; details: route oral
[28] = system: L1210; test: Antitumor activity was assessed against L1210 tumors in B6D2F1 mouse by inoculation of 10e5 tumor cells through ip route and mean death of animals (treated/control) was reported at 10 mg/kg peroral dose; assay type: functional; details: route oral
[29] = system: L1210; test: Antitumor activity was assessed against L1210 tumors in B6D2F1 mouse by inoculation of 10e5 tumor cells through ip route and mean death of animals (treated/control) was reported at 20 mg/kg peroral dose; assay type: functional; details: route oral
[30] = system: L1210; test: Antitumor activity was assessed against L1210 tumors in B6D2F1 mouse by inoculation of 10e5 tumor cells through ip route and mean death of animals (treated/control) was reported at 40 mg/kg peroral dose; assay type: functional; details: route oral
[31] = Antitumor activity was assessed against TLX5 tumors in CBA/CA mouse by inoculation of 2 x 10e5 tumor cells through subcutaneous route and number of Survivors to duration was reported at 20 mg/kg iv dose; 1/5; assay type: functional
[32] = Antitumor activity was assessed against TLX5 tumors in CBA/CA mouse by inoculation of 2 x 10e5 tumor cells through subcutaneous route and number of Survivors to duration was reported at 40 mg/kg iv dose; 5/5; assay type: functional
[33] = Antitumor activity was assessed against TLX5 tumors in CBA/CA mouse by inoculation of 2 x 10e5 tumor cells through subcutaneous route and mean death of animals (treated/control) was reported at 80 mg/kg iv dose; assay type: functional
[34] = Antitumor activity was assessed against TLX5 tumors in CBA/CA mouse by inoculation of 2 x 10e5 tumor cells through subcutaneous route and mean death of animals (treated/control) was reported at 10 mg/kg iv dose; assay type: functional
[35] = Antitumor activity was assessed against TLX5 tumors in CBA/CA mouse by inoculation of 2 x 10e5 tumor cells through subcutaneous route and mean death of animals (treated/control) was reported at 20 mg/kg dose; assay type: functional
[36] = Antitumor activity was assessed against TLX5 tumors in CBA/CA mouse by inoculation of 2 x 10e5 tumor cells through subcutaneous route and mean death of animals (treated/control) was reported at 40 mg/kg iv dose; assay type: functional
[37] = Antitumor activity was assessed against TLX5 tumors in CBA/CA mouse by inoculation of 2 x 10e5 tumor cells through subcutaneous route and mean death of animals (treated/control) was reported at 5 mg/kg dose; assay type: functional
[38] = system: L1210; test: Antitumor activity was assessed against L1210 tumors in B6D2F1 mouse by inoculation of 10e5 tumor cells through intraperitoneal route and number of Survivors to duration was reported at 40 mg/kg peroral dose; 2/10; details: route oral
[39] = system: L1210; test: Antitumor activity was assessed against L1210 tumors in B6D2F1 mouse by inoculation of 10e5 tumor cells through intraperitoneal route and number of Survivors to duration was reported at 20 mg/kg peroral dose; 10/10; details: route oral

O=c1n(CCCl)nnc2c([N+](=O)[O-])cnn12
T/C [1]: 100% | T/C [2]: 101% | T/C [3]: 101%

CN(C)S(=O)(=O)c1ncn2c(=O)n(CCCl)nnc12
Survivors [4]: 7 | T/C [5]: 222% | T/C [6]: >750% | T/C [7]: 152% | T/C [8]: >385% | T/C [9]: >381% | T/C [10]: 68% | Survivors [11]: 3 | Survivors [12]: 3

COc1ccc(CNS(=O)(=O)c2ncn3c(=O)n(CCCl)nnc23)cc1
T/C [13]: 123% | T/C [8]: 113% | T/C [14]: 109% | T/C [10]: 151%

O=c1n(CCCl)nnc2c(-c3ccccc3)ncn12
T/C [1]: 100% | T/C [2]: 100% | T/C [3]: 100%

O=c1n(CCCl)nnc2c([N+](=O)[O-])ncn12
T/C [1]: 98% | T/C [2]: 98% | T/C [3]: 98%

CC(C)c1nc(C(N)=O)c2nnn(CCCl)c(=O)n12
T/C [15]: 100% | T/C [16]: 104% | T/C [17]: 137%

CCCCc1nc(C(N)=O)c2nnn(CCCl)c(=O)n12
T/C [6]: 100% | T/C [18]: 113% | T/C [19]: 147%

NC(=O)c1nc(Cc2ccccc2)n2c(=O)n(CCCl)nnc12
T/C [1]: 114% | T/C [2]: 127% | T/C [3]: 105%

CN(C(=O)c1ncn2c(=O)n(CCCl)nnc12)c1ccccc1
T/C [1]: 100% | T/C [2]: 100% | T/C [3]: 100%

Cc1nc(C(N)=O)c2nnn(CCCl)c(=O)n12
T/C [6]: 180% | T/C [18]: 248% | T/C [7]: 128% | T/C [19]: 267% | T/C [13]: 80% | T/C [8]: 176% | T/C [14]: 66% | T/C [9]: >343% | T/C [10]: >550% | Survivors [20]: 2 | Survivors [21]: 5

N#Cc1ncn2c(=O)n(CCCl)nnc12
T/C [22]: 96% | T/C [23]: 80% | T/C [24]: 102% | T/C [25]: 102% | T/C [26]: 104%

CNC(=O)c1ncn2c(=O)n(CCCl)nnc12
Survivors [27]: 2 | T/C [28]: >192% | T/C [29]: >453% | T/C [30]: >215% | Survivors [31]: 1 | Survivors [32]: 5 | T/C [33]: 72% | T/C [34]: 133% | T/C [35]: >254% | T/C [36]: >555% | T/C [37]: 104% | Survivors [38]: 2 | Survivors [39]: 10

CCc1nc(C(N)=O)c2nnn(CCCl)c(=O)n12
T/C [5]: 145% | T/C [6]: 212% | T/C [7]: 105%

NC(=O)c1nc(C2CCCCC2)n2c(=O)n(CCCl)nnc12
T/C [1]: 86% | T/C [2]: 90% | T/C [3]: 94%
